The text below walks through data of patent US20120122730A1, “Methods for Quantitative Analyses of Kinase Inhibitor Selectivity Using Small Size Panels” (priority 2010, published 2012).

The experiment has as its system panel of 287 distinct human protein kinases, three lipid kinases, and 27 disease-relevant mutant variants. Briefly: Weighted selectivity score from competition binding assays against a kinase panel. The following applies: Kd thresholds <100 nM, <1 μM, <3 μM weighted; panel of 317 assays; FIG. 7. Here is the method: In one embodiment, a kinase subset may be determined by using a computational method that can extract knowledge from large amounts of data from known cancer drug designs and find a subset of kinases. A first step in determining a kinase subset involves the use of data from competition binding assays where kinase inhibitors are evaluated against a panel of protein kinases. For each interaction, a quantitative dissociation constant (Kd) is needed.
In one embodiment, a quantitative description, called a weighted selectivity score, is developed for assessing kinome-wide compound reactivities by suitably coarse-graining the binding-affinity vector. […] The weighted selectivity score (normalized or not) is an unbiased measure that enables quantitative comparisons between compounds and the detailed differentiation and analysis of interaction patterns. […]
To validate a method of the present disclosure, data from a previous competition binding assays was used wherein 38 kinase inhibitors were evaluated against a panel of 287 distinct human protein kinases, three lipid kinases, and 27 disease-relevant mutant variants. […] Each compound was screened against the panel of 317 assays at a single concentration of 10 μM to identify candidate kinase targets, and for each interaction observed in this primary screen a quantitative dissociation constant was determined.

As for `COc1ccc(COc2ccc(Cc3cnc(N)nc3N)cc2OC)cc1` [GW-2580], the “weighted selectivity score (overall score)” value was 3.5.
